Laboratory results as given in paper PMC3899824 (Investigational new drugs, 2013).

Experiments:
[1] = system: 8226/S multiple myeloma cells; assay: Apoptosis by AnnexinV/PI flow cytometry, 8226/S; type: cell-based, human; details: 200 nM PC-046 24h, without active caspase inhibitor
[2] = system: MM.1S multiple myeloma cells; assay: Apoptosis by AnnexinV/PI flow cytometry, MM.1S; type: cell-based, human; details: 200 nM PC-046 24h, without active caspase inhibitor
8226/S myeloma cells = details: read-out: IC50, nM (Mean ± SEM), 72h, MTT
[3] = system: 8226/Dox40 myeloma cells (MDR-1 overexpressing); details: read-out: IC50, nM (Mean ± SEM); 8226/Dox40, 72h, MTT
NIH-H929 myeloma cells = details: read-out: IC50, nM (Mean ± SEM); NIH-H929, 72h, MTT
MM.1S myeloma cells = details: read-out: IC50, nM (Mean ± SEM), 72h, MTT
U266 myeloma cells = details: read-out: IC50, nM (Mean ± SEM); U266, 72h, MTT
OCI-AML3 leukemia cells = details: read-out: IC50, nM (Mean ± SEM); OCI-AML3, 72h, MTT
MV-4-11 leukemia cells = details: read-out: IC50, nM (Mean ± SEM); MV-4-11, 72h, MTT
[4] = system: MiaPaCa-2 pancreatic cells; details: read-out: IC50, nM (Mean ± SEM); MiaPaCa-2, 72h, MTT
Panc-1 pancreatic cells = details: read-out: IC50, nM (Mean ± SEM); Panc-1, 72h, MTT
BxPC-3 pancreatic cells = details: read-out: IC50, nM (Mean ± SEM); BxPC-3, 72h, MTT
MCF-7 breast cells = details: read-out: IC50, nM (Mean ± SEM); MCF-7, 72h, MTT
PC-3 prostate cells = details: read-out: IC50, nM (Mean ± SEM); PC-3, 72h, MTT
HCT-116 colon cells = details: read-out: IC50, nM (Mean ± SEM); HCT-116 parental, 72h, MTT
[5] = system: HCT-116 DPC4 (−/−) colon cells
[6] = system: U266 multiple myeloma cells; details: U266, 24h, 25-100 nM
[7] = system: 8226/S multiple myeloma cells; details: 24h, 25-100 nM
[8] = system: 8226/S multiple myeloma cells; details: 150 nM PC-046, 16h, baseline 3.31 (0.14)
[9] = system: MM.1S multiple myeloma cells; details: 150 nM PC-046, 16h, baseline 3.14 (0.15)
[10] = system: OCI-AM-3 (Acute Myeloid Leukemia) human tumor xenograft; details: 55 mg/kg IP, Dailyx5, off 5d, repeat 1×
[11] = system: MV-4-11 (Acute Myeloid Leukemia) human tumor xenograft; details: 55 mg/kg IP, Dailyx5, off 5d, repeat 2×
[12] = system: DU-145 (Prostate Cancer) human tumor xenograft; details: 55 mg/kg IP, Dailyx5, off 7d, repeat 2×
[13] = 50–55 mg/kg IP, daily × 5 days, 5 to 7 days off, 2–3 courses
[14] = system: DPC4 (-/-) BxPC3 pancreatic cancer cell line vs DPC4 (+/+) isogenic cell line; details: cited from earlier work
[15] = system: human MiaPaCa-2 pancreatic cancer cell line xenograft; details: SCID mice bearing MiaPaCa-2 flank tumors; cited from earlier work
TRK-B = details: at pharmacologically-achievable concentrations; cited from earlier work
PDGF-beta = details: at pharmacologically-achievable concentrations; cited from earlier work
FLT-1 = details: FLT-1, at pharmacologically-achievable concentrations; cited from earlier work
[16] = system: human pancreatic cancer cells; details: cited from earlier work
[17] = system: 8226/S (Multiple Myeloma) human tumor xenograft; assay: Xenograft efficacy, 8226/S; details: 50 mg/kg IP
[18] = system: caspases 3, 8 and 9 in MM.1S cells; assay: Western blot of caspases 3, 8 and 9; details: 24h, 0 – 500 nM

SMILES: COc1ccc(-c2cnc(-c3ccncc3-c3cccc(OC)c3)o2)cc1 [PC-046, 5-(4-methoxyphenyl)pyridine-4-yl]
- AnnexinV-positive cells [1]: 30.7%
- AnnexinV-positive cells [2]: 32.6%
- IC50 (8226/S myeloma cells): 134 ± 13.8 nM
- IC50 [3]: 188 ± 6.1 nM
- IC50 (NIH-H929 myeloma cells): 163 ± 13.9 nM
- IC50 (MM.1S myeloma cells): 162 ± 39.6 nM
- IC50 (U266 myeloma cells): 70.1 ± 16.2 nM
- IC50 (OCI-AML3 leukemia cells): 177 ± 31.8 nM
- IC50 (MV-4-11 leukemia cells): 193 ± 10.8 nM
- IC50 [4]: 296 ± 72.1 nM
- IC50 (Panc-1 pancreatic cells): 215 ± 49.4 nM
- IC50 (BxPC-3 pancreatic cells): 199 ± 48.2 nM
- IC50 (MCF-7 breast cells): 166 ± 26.3 nM
- IC50 (PC-3 prostate cells): 105 ± 30.2 nM
- IC50 (HCT-116 colon cells): 99.5 ± 15.8 nM
- increased activity for the DPC4 (-/-) HCT-116 cell line compared to the wild type HCT-116 cells ([5]; ratio of IC50 values): roughly 2 fold
- IC50 ([5]; read-out: IC50, nM (Mean ± SEM), HCT-116 DPC4 (−/−), 72h, MTT): 52 ± 5.3 nM
- cell cycle effect (DNA content) [6]: accumulation of cells in the G2/M-phase
- cell cycle effect (DNA content) [7]: significant accumulation of cells in S-phase
- % positive histone H3 cells, mean (SEM) [8]: 34.70 (5.84) %
- % positive histone H3 cells, mean (SEM) [9]: 17.3 (1.28) %
- Mean (SD), mm^3, DPC046 (tumor AUC) ([10]; control 17752.6 (8665.6)): 12433.4 (4647.1) mm^3
- Tumor AUC % Change ([10]; vs control, p NS): −29.90%
- Mean (SD), mm^3, DPC046 (tumor AUC) ([11]; control 18702.7 (7654.1)): 11309.3 (5293.3) mm^3
- Tumor AUC % Change ([11]; vs control, p 0.0374): −39.50%
- Mean (SD), mm^3, DPC046 (tumor AUC) ([12]; control 69969.6 (22735.3)): 45801.8 (23344.4) mm^3
- Tumor AUC % Change ([12]; vs control, p 0.04886): −34.50%
- lethality [13]: no lethality
- loss of body weight [13]: about 10%
- lethal acute dose (mouse, in vivo): 150 mg/kg
- time to death after administration (mouse, in vivo, 150 mg/kg): 2 to 5 days
- acutely tolerated dose (single dose, non-tumor bearing mice): 100 mg/kg
- selectivity index previously reported [14]: 1.74 x
- activity against flank tumor xenografts [15]: active
- kinase inhibition in vitro (TRK-B): inhibit
- kinase inhibition in vitro (PDGF-beta): inhibit
- kinase inhibition in vitro (FLT-1): inhibit
- cell cycle effect [16]: accumulate in G2/M phases
- tumor growth inhibition in vivo (in words) ([17]; 8226/S myeloma xenograft): no growth inhibition was observed
- Mean (SD), mm^3, DPC046 (tumor AUC) ([17]; 8226/S, Every third day, repeat 10×, control 27292.6 (13688.8)): 28516.9 (9067.3) mm^3
- Tumor AUC % Change ([17]; 8226/S, Every third day, repeat 10×, vs control, p NS): +4.5%
- caspase activation by western blot [18]: cleavage of three major caspases, 3, 8, and 9
